Experimental data: patent publication US11214803B2, “Modulators of YAP1 expression” (Ionis Pharmaceuticals, Inc., priority 2019, dated 2022)
Strand notation (5' to 3'): a small letter for the sugar, then the base; units joined by * are phosphorothioate-linked, units joined directly phosphodiester-linked; [ ] holds rarer units or linkages, { } end groups; capitals alone tell only the bases. e = 2'-O-(2-methoxyethyl) (MOE); k = constrained ethyl (cEt); [5mC] = 5-methylcytosine; d = 2'-deoxy (DNA); m = 2'-O-methyl

Tested on: Yap1 mRNA
Test: Dose-dependent inhibition of human Yap1 in SNU-449 cells (Example 9, RTS36584)
Assay type: cell-based
Conditions: free uptake; for % UTC (Yap1 mRNA): approximately 48 hours; for IC50: linear regression on a log/linear plot
Description: Modified oligonucleotides described in the studies above were tested at various doses in SNU-449 cells. Cultured SNU-449 cells at a density of 10,000 cells per well were treated using free uptake with modified oligonucleotides diluted to concentrations described in the tables below. After approximately 48 hours, Yap1 mRNA levels were measured as previously described using the Human Yap1 primer-probe set RTS36584. Yap1 mRNA levels were normalized to total RNA content, as measured by RIBOGREEN®. Results are presented in the tables below as percent control of the amount of Yap1 mRNA relative to untreated control cells (% UTC). IC50s were calculated using a linear regression on a log/linear plot of the data in excel.

| Substance | % UTC (Yap1 mRNA) (31.3 nM) | % UTC (Yap1 mRNA) (125.0 nM) | % UTC (Yap1 mRNA) (500.0 nM) | % UTC (Yap1 mRNA) (2000.00 nM) | IC50 |
| --- | --- | --- | --- | --- | --- |
| 1197177 (kA*kT*kT*dG*dT*d[5mC]*dT*d[5mC]*dA*dT*dG*d[5mC]*d[5mC]*kT*kT*kA; antisense) [compound 1197177] | 56 % UTC | 29 % UTC | 8 % UTC | 2 % UTC | 30 nM |
| 1198557 (kA*kT*kA*dT*dT*dA*dG*dA*dG*dT*dA*dT*kG*kT*kG*eG; antisense) [compound 1198557] | 81 % UTC | 52 % UTC | 26 % UTC | 11 % UTC | 200 nM |
| 1198297 (kA*kT*kT*dA*dG*dA*dG*dT*dA*dT*dG*dT*kG*eG*k[5mC]*eA) [compound 1198297] | 67 % UTC | 42 % UTC | 16 % UTC | 7 % UTC | 100 nM |
| 1197236 (kT*kA*kT*dT*mA*dG*dA*dG*dT*dA*dT*dG*dT*kG*kG*k[5mC]; antisense) [compound 1197236] | 64 % UTC | 46 % UTC | 25 % UTC | 14 % UTC | 100 nM |
| 1198286 (kA*kA*kT*dT*dG*dT*d[5mC]*dT*d[5mC]*dA*dT*dG*k[5mC]*e[5mC]*kT*eT; antisense) [compound 1198286] | 64 % UTC | 45 % UTC | 22 % UTC | 8 % UTC | 100 nM |
| 1198550 (kA*kT*kA*dT*dG*dG*dA*dA*dA*dT*dT*dG*kT*k[5mC]*kT*e[5mC]) [compound 1198550] | 73 % UTC | 56 % UTC | 30 % UTC | 13 % UTC | 200 nM |
| 1197178 (kA*kA*kT*dT*dG*dT*d[5mC]*dT*d[5mC]*dA*dT*dG*d[5mC]*k[5mC]*kT*kT; antisense) [compound 1197178] | 64 % UTC | 36 % UTC | 14 % UTC | 4 % UTC | 100 nM |
| 1200797 (kA*kT*kT*dA*dG*mA*dG*dT*dA*dT*dG*dT*dG*kG*k[5mC]*kA; antisense) [compound 1200797] | 84 % UTC | 52 % UTC | 23 % UTC | 11 % UTC | 200 nM |
| 1198212 (kT*kA*dT*dT*dA*dG*dA*dG*dT*dA*dT*eG*eT*eG*kG*k[5mC]) [compound 1198212] | 74 % UTC | 35 % UTC | 10 % UTC | 2 % UTC | 100 nM |
| 1200803 (kG*kG*kT*dA*dT*mA*dA*d[5mC]*dT*dG*dG*dG*d[5mC]*kA*kA*kA; antisense) [compound 1200803] | 72 % UTC | 52 % UTC | 34 % UTC | 18 % UTC | 200 nM |
| 1198543 (kA*kT*kT*dG*dT*d[5mC]*dT*d[5mC]*dA*dT*dG*d[5mC]*k[5mC]*kT*kT*eA; antisense) [compound 1198543] | 75 % UTC | 42 % UTC | 19 % UTC | 6 % UTC | 100 nM |
| 1197217 (kT*kT*kA*dA*dA*dG*dT*dG*dT*dA*dT*dG*dT*k[5mC]*kA*kG) [compound 1197217] | 66 % UTC | 39 % UTC | 14 % UTC | 4 % UTC | 100 nM |
| 1198918 (kG*k[5mC]*dA*d[5mC]*dT*dT*dT*dT*dA*d[5mC]*dA*kT*dT*kA*dG*kG) [compound 1198918] | 60 % UTC | 33 % UTC | 13 % UTC | 9 % UTC | 50 nM |
| 1198902 (kT*kT*dA*dG*dA*dG*dT*dA*dT*dG*dT*kG*dG*k[5mC]*dA*kA; antisense) [compound 1198902] | 74 % UTC | 46 % UTC | 22 % UTC | 10 % UTC | 100 nM |
| 1198524 (kT*kG*dT*dA*dT*dG*dT*d[5mC]*dA*dG*dA*eA*kG*eA*kG*eT; antisense) [compound 1198524] | 50 % UTC | 32 % UTC | 9 % UTC | 3 % UTC | < 30 nM |
| 1198555 (kA*kT*kT*dA*dG*dA*dG*dT*dA*dT*dG*dT*kG*kG*k[5mC]*eA; antisense) [compound 1198555] | 73 % UTC | 40 % UTC | 19 % UTC | 9 % UTC | 100 nM |

| Substance | % UTC (Yap1 mRNA) (31.3 nM) | % UTC (Yap1 mRNA) (125.0 nM) | % UTC (Yap1 mRNA) (500.0 nM) | % UTC (Yap1 mRNA) (2000.00 nM) | IC50 |
| --- | --- | --- | --- | --- | --- |
| 1074462 (kG*kG*kA*dA*dA*dT*dT*dG*dT*d[5mC]*dT*d[5mC]*dA*kT*kG*k[5mC]; antisense) [compound 1074462] | 90 % UTC | 38 % UTC | 13 % UTC | 3 % UTC | 100 nM |
| 1198614 (kT*kA*kA*dA*dG*dT*dG*dT*dA*dT*dG*dT*k[5mC]*kA*kG*eA; antisense) [compound 1198614] | 69 % UTC | 26 % UTC | 3 % UTC | 1 % UTC | 100 nM |
| 1198354 (kA*kA*kG*dT*dG*dT*dA*dT*dG*dT*d[5mC]*dA*kG*eA*kA*eG) [compound 1198354] | 66 % UTC | 24 % UTC | 5 % UTC | 1 % UTC | 50 nM |
| 1198554 (kT*kT*kA*dG*dA*dG*dT*dA*dT*dG*dT*dG*kG*k[5mC]*kA*eA; antisense) [compound 1198554] | 72 % UTC | 46 % UTC | 22 % UTC | 8 % UTC | 100 nM |
| 1198502 (kA*kG*dA*dT*dT*dT*dA*dG*dG*dA*dT*eG*k[5mC]*eA*kT*eG; antisense) [compound 1198502] | 76 % UTC | 50 % UTC | 29 % UTC | 15 % UTC | 200 nM |
| 1197179 (kT*kG*kG*dA*dA*dA*dT*dT*dG*dT*d[5mC]*dT*d[5mC]*kA*kT*kG; antisense) [compound 1197179] | 58 % UTC | 38 % UTC | 17 % UTC | 7 % UTC | 100 nM |
| 1200806 (kT*kG*kA*dG*dG*mU*dA*dT*dA*dA*d[5mC]*dT*dG*kG*kG*k[5mC]; antisense) [compound 1200806] | 91 % UTC | 54 % UTC | 34 % UTC | 18 % UTC | 200 nM |
| 1198504 (kT*k[5mC]*dA*dG*dA*dT*dT*dT*dA*dG*dG*eA*kT*eG*k[5mC]*eA; antisense) [compound 1198504] | 77 % UTC | 46 % UTC | 27 % UTC | 24 % UTC | 100 nM |
| 1198499 (kT*kT*dT*dA*dG*dG*dA*dT*dG*d[5mC]*dA*eT*kG*eG*kT*eT) [compound 1198499] | 89 % UTC | 42 % UTC | 30 % UTC | 12 % UTC | 200 nM |
| 1198358 (kT*kT*kT*dA*dA*dA*dG*dT*dG*dT*dA*dT*kG*eT*k[5mC]*eA; antisense) [compound 1198358] | 68 % UTC | 39 % UTC | 20 % UTC | 8 % UTC | 100 nM |
| 1198380 (kA*dG*dA*dG*dT*dA*dT*dG*dT*dG*dG*k[5mC]*eA*kA*eT*kA; antisense) [compound 1198380] | 72 % UTC | 55 % UTC | 27 % UTC | 11 % UTC | 100 nM |
| 1198958 (kT*kG*dT*dA*dT*dG*dT*d[5mC]*dA*dG*dA*kA*dG*kA*dG*kT; antisense) [compound 1198958] | 68 % UTC | 39 % UTC | 16 % UTC | 5 % UTC | 100 nM |
| 1198243 (kG*kA*dT*dT*dT*dA*dG*dG*dA*dT*dG*e[5mC]*eA*eT*kG*kG; antisense) [compound 1198243] | 55 % UTC | 28 % UTC | 10 % UTC | 5 % UTC | < 30 nM |
| 1200798 (kT*kA*kT*dT*dA*mG*dA*dG*dT*dA*dT*dG*dT*kG*kG*k[5mC]; antisense) [compound 1200798] | 77 % UTC | 44 % UTC | 17 % UTC | 7 % UTC | 100 nM |
| 1197213 (kT*kG*kT*dA*dT*dG*dT*d[5mC]*dA*dG*dA*dA*dG*kA*kG*kT; antisense) [compound 1197213] | 87 % UTC | 46 % UTC | 14 % UTC | 2 % UTC | 100 nM |
